For orientation: inhibition means the share of the control response that was lost under treatment. By LD50 is commonly meant the dose expected to kill half of the subjects tested. A lower LD50 goes with greater toxicity. As a reminder, the amount remaining is the share of the starting amount still present when the sample was taken. Low readings indicate more turnover, high ones less turnover. As a reminder, the ED50 is the dose at which the effect has come halfway, by size or by number of responders. Higher therefore signals a need for a large dose.

Data on 1 molecule can be found in patent US4808596A, “Imidazo[4,5-b]pyridine compounds and pharmaceutical compositions containing same” (Tokyo Tanabe Company, Ltd., priority 1986, dated 1989).

One data set addresses T1, (H^+ +K^+) ATPase (Sus scrofa, UniProt P19156).
T1 construct: prepared from fresh pieces of the fundus ventriculi of hog stomach; from tissue; host or cells: hog stomach, fundus ventriculi (fresh pieces), prepared by the method of Saccomani et al., J. Biol. Chem. 1976
The data set is described as follows: Inhibitory effect on (H^+ +K^+) ATPase. Type of data set: biochemical, hog. Particulars: at 1 × 10^-3 M; in vitro; read-out: Degree of inhibition, Inhibitory effect on (H^+ + K^+) ATPase. As to the method: The inhibitory effect of the present compounds [I] on (H^+ +K^+) ATPase was tested by adding each test compound to a solution containing 300-500 μg, on a protein basis, of the enzyme, incubating this reaction mixture at 35°-37° C. for 5-30 minutes, and then determining the residual activity of (H^+ +K^+) ATPase present in the reaction mixture. The test compounds were dissolved in methanol or ethanol in advance and added to the reaction system in such an amount as to give a concentration of 1×10^-3 M. The (H^+ +K^+) ATPase used in this test was prepared from fresh pieces of the fundus ventriculi of hog stomach according to the method of Saccomani et al. (The Journal of Biological Chemistry, Vol. 251, No. 23, p. 7690, 1976). The residual activity of (H^+ +K^+) ATPase was determined by mixing magnesium chloride and potassium chloride with the incubated reaction mixture, adding adenosine triphosphate thereto, incubating this assay mixture 37° C. for 5-15 minutes to effect an enzymic reaction, and colorimetrically determining the liberated inorganic phosphate by use of an ammonium molybdate reagent. The initial concentrations of magnesium chloride, potassium chloride and adenosine triphosphate were adjusted to 2 mM, 20 mM and 2 mM, respectively. Colorimetric determinations were made at a wavelength of 360-400 nm. As a control experiment, the residual activity of (H^+ +K^+) ATPase was determined by repeating the above-described procedure without adding any test compound to the reaction system. In this table, the inhibitory effect is indicated by the degree of inhibition which was obtained by calculating the difference between the measured value obtained in the control experiment and the measured value resulting from the addition of each test compound and expressing this difference as a percentage of the measured value obtained in the control experiment. For purposes of comparison, the inhibitory effect of Omeprazole and Compounds α and β on (H^+ +K^+) ATPase was tested in the same manner as described above and the results thus obtained are also shown in Table 2.

Data set [1] can be described thus: Acute toxicity test (LD50). Particulars: rat, in vivo, rats. On the procedure: The acute toxicity (LD50) of several typical examples of the present compounds [I] (i.e., the compounds of Examples 1, 8, 13, 19, 24, 26 and 33) was tested with 5-weeks-old male Wistar rats. […] When Omeprazole was administered orally, its LD50 value was greater than 4000 mg/kg.
A short description of the next data set: physchem. Type of data set: physicochemical. Conditions: solid, 75% rh. As to the method:
The storage stability of the present compounds [I] was tested by allowing each test compound to stand under severe conditions (i.e., a temperature of 60° C. and a relative humidity of 75%) for 8 days and then determining its percentage of residue according to a thin-layer densitometric method (Bunseki Kagaku, Vol. 23, No. 9, p. 1016, 1974). More specifically, upon completion of the severe treatment, 100 μg of each test compound was applied to a thin-layer plate and this plate was developed with a chloroform-ethanol mixture (volume ratio 10:1). The thin-layer plate used for this purpose was a TLC Plate Aluminum Oxide 60F254 (manufactured by Merck Co.; 0.25 mm in thickness and 20 cm×20 cm in size), and it was developed over a distance of 15 cm. Then, using a Shimazu Two-wavelength Chromatoscanner CS-910 (manufactured by Shimazu Seisakusho), the resulting spot was analyzed at a wavelength of 300-315 nm.
For purposes of comparison, the percentages of residue of Omeprazole (at a measuring wavelength of 300 nm) and Compounds α and β (at a measuring wavelength of 310 nm) were determined in the same manner as described above and are also shown in Table 1.

The subject of the next data set is gastric acid secretion. The data set is described as follows: Inhibitory effect on gastric acid secretion (pylorus ligation). Type of data set: in vivo, male Wistar rats. Particulars: Rattus norvegicus, po, rats; total acidity of gastric juice 4 hours after pylorus ligation. On the procedure: The inhibitory effect of the present compounds [I] on gastric acid secretion was tested by using male Wistar rats, weighing about 200 g, in groups of five. To these rats which had been fasted overnight, the test compounds were orally administered in a series of appropriately selected doses ranging from 1 to 100 mg/kg. Then, the pyloric end of the stomach was ligated. After the lapse of 4 hours, the total acidity of gastric juice of each rat was measured. More specifically, the test compounds were suspended in a 0.5% aqueous solution of carboxymethyl cellulose and administered to the rats 30 minutes before ligation. Gastric juice was collected by sacrificing and laparotomizing each rat. The total acidity of gastric juice was determined by titrating the gastric juice with a 0.1 N aqueous solution of sodium hydroxide until a pH of 7.0 was reached. As a control experiment, the total acidity of gastric juice of an untreated group was determined in the same manner as described above. The inhibitory effect of the test compounds on gastric acid secretion was evaluated on the basis of the dose (in mg/kg) required to inhibit gastric acid secretion, i.e. the total acidity of gastric juice, by 50% (hereinafter referred to as ED50). The ED50 value of each test compound was determined by calculating the difference in total acidity between the untreated group and each treated group, dividing the difference by the total acidity of the untreated group to obtain the degree of inhibition, and constructing a dose-response curve on the basis of the data thus obtained. For purposes of comparison, the ED50 values of Omeprazole and Compounds α and β were determined in the same manner as described above and are also shown in Table 3.

T1 sequence (P19156 2-1034 limits assumed): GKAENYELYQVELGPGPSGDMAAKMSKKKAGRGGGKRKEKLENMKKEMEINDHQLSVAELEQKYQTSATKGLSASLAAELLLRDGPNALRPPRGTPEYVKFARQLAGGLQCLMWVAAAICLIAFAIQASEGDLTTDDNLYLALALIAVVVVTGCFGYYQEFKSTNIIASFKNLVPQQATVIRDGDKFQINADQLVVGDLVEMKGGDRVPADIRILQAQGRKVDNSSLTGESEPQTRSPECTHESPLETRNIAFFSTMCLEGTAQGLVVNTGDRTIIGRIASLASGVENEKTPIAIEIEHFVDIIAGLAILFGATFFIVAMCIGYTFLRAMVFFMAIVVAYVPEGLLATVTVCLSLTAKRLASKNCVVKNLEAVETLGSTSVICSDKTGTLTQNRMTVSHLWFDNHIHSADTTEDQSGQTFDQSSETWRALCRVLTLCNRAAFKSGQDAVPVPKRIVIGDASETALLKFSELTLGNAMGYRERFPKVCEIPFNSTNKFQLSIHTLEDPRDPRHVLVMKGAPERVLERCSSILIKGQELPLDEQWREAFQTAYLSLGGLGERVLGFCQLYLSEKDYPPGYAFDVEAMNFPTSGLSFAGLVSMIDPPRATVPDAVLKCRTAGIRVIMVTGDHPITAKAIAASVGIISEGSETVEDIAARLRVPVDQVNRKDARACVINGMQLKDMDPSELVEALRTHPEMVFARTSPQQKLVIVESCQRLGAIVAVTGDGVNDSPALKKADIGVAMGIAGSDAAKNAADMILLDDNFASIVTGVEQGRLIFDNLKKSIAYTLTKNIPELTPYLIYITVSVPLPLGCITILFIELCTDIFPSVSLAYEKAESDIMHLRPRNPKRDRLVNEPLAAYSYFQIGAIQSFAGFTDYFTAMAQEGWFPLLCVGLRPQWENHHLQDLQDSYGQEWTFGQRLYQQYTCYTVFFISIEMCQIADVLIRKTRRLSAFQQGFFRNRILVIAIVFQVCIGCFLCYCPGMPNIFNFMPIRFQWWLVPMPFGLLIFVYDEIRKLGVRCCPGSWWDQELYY
T1 sequence (P18434 whole entry partner): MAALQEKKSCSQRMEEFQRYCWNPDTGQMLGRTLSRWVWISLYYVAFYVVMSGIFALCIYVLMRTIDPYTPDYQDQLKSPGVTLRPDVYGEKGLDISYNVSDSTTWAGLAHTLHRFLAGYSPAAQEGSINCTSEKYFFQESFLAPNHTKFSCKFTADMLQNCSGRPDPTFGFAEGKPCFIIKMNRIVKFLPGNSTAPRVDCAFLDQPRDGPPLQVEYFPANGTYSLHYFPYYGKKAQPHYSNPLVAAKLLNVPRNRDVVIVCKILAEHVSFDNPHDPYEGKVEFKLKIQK

As for `Cc1cnc(C[S+]([O-])c2nc3nc(OCC(C)C)ccc3[nH]2)c(C)c1` (centres unmarked) [Example 19, 2-[2-(3,5-Dimethyl)pyridylmethylsulfinyl]-5-isobutyloxyimidazo[4,5-b]pyridine], the inhibition at 1000 µM at (H^+ +K^+) ATPase was determined as 100%. Moreover, the LD50 in data set [1] (ip, intraperitoneal administration) was over 500 mg/kg; in data set [1] (oral administration), over 4000 mg/kg. Moreover, in “physchem”, the fraction remaining at 192 h is 78%. In the data set on gastric acid secretion, this molecule gave an ED50 of 11 mg/kg.
